Laboratory results reported in ChEMBL document CHEMBL1129685, “Mechanism-based inhibition of L-pipecolate oxidase by 4,5-dehydro-L-pipecolic acid” (J Med Chem, 1996).

Molecular target: T1, Peroxisomal sarcosine oxidase (Homo sapiens) (UniProt Q9P0Z9)
T1 sequence (whole entry): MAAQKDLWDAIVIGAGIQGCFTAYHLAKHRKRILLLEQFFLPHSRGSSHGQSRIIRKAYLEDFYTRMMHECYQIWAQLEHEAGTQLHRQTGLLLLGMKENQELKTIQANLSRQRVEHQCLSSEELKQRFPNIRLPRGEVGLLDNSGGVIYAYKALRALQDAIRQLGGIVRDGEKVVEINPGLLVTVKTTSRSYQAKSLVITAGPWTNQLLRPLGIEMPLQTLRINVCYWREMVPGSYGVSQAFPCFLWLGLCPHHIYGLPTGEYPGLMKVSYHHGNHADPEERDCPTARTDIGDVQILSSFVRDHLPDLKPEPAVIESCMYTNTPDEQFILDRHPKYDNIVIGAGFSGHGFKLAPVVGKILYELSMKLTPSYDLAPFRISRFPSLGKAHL
Experiment: Kinetic parameter inactivation constant was determined on L-pipecolate oxidase from Rhesus monkey
Conditions: Cercopithecidae; target entry is the homologue from another species

`O=C(O)[C@@H]1CCCCN1` gave a Kiact of 2 min⁻¹.
